In patent US9809623B2, “α4β7 peptide monomer and dimer antagonists” (Protagonist Therapeutics, Inc., priority 2014, dated 2017):
Numbered stars: 1 amine (or outer) side, 2 acyl side, 3 side chain; on linkers, the order of the positions; unused ones are H or OH. Bridge positions count the residues as written; N and C are the ends. Square brackets hold non-standard residues; d marks the D form. Peptide text beside a SMILES is read from it. I, II: the chains in the order shown. Phe(4-tBu) = CC(C)(C)c1ccc(C[C@H](N)C(=O)O)cc1; Diglycolyl = O=C(COCC(=O)[*:2])[*:1]; NMeR = CN[C@@H](CCCNC(=N)N)C(=O)O; β3hE = N[C@@H](CCC(=O)O)CC(=O)O; NMeK = CN[C@@H](CCCCN)C(=O)O; Pen = CC(C)(S)[C@H](N)C(=O)O; dNMeK = CN[C@H](CCCCN)C(=O)O

Assays:
[1] = target: α4β7 (Homo sapiens, UniProt P13612+P26010); experiment: PBMC Memory T Cell Adhesion Assay, adhesion to MAdCAM-1; format: cell-based; settings: Table 4-B; read-out: Cell Adhesion PBMC IC50
Sequence of α4β7 (P13612 34-1032): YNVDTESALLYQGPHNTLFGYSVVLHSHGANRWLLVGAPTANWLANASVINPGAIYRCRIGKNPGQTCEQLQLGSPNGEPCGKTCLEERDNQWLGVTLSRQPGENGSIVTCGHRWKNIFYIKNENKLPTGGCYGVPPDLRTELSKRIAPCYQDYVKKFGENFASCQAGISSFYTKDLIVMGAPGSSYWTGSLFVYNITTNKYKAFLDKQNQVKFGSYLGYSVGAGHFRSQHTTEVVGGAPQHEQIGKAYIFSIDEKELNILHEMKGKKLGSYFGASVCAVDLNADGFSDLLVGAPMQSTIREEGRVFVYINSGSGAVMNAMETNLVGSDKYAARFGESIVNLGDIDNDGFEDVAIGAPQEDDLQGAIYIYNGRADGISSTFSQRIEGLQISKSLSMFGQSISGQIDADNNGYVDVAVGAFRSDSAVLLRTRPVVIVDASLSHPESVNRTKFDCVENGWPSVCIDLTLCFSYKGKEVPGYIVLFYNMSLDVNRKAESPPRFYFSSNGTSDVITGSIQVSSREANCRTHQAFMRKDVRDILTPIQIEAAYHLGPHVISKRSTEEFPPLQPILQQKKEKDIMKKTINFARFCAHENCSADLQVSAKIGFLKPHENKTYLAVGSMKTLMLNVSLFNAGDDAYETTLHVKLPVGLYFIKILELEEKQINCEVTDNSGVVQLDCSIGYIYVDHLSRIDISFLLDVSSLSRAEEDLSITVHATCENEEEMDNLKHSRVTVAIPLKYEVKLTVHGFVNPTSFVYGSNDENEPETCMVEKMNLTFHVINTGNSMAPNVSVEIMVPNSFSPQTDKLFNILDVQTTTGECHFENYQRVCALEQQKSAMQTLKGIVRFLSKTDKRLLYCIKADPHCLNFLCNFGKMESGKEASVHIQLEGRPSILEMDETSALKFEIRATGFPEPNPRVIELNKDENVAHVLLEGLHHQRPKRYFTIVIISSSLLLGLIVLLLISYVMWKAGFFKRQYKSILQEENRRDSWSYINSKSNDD
Sequence of α4β7 (P26010 20-798): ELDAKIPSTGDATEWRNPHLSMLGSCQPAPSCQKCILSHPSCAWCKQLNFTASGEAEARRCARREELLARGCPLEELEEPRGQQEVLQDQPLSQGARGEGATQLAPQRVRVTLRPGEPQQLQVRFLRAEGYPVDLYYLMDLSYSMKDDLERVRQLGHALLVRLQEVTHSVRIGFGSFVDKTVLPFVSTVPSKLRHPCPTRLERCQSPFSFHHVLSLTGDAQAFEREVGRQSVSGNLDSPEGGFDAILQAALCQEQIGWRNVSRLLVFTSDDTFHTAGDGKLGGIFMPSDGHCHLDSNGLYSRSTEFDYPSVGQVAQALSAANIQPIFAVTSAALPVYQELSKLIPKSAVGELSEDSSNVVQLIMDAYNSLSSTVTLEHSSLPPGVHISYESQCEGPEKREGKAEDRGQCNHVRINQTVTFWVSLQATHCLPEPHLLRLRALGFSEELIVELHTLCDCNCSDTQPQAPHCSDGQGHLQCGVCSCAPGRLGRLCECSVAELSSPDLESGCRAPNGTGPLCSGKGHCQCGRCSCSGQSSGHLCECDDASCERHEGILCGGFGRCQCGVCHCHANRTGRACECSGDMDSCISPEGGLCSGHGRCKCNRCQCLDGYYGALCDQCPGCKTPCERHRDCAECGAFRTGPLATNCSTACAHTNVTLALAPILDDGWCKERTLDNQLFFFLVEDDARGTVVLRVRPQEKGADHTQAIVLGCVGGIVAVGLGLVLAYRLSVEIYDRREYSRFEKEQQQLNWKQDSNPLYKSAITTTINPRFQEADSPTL
Outline: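 Fresh human CD4+/CD45RO+ memory T cells in binding medium with 1 mM MnCl2 were preincubated with compound for 1.5 h at 37° C. on plates coated with Fc-captured MAdCAM-1 (400 ng/well). Adherent cells were read by fluorescence (Ex 485/Em 530). IC50 came from four-parameter nonlinear regression of RFU versus log concentration.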

[2] = Simulated Intestinal Fluid (SIF) Stability Assay; format: in vitro ADME, porcine; settings: t1/2; for half-life at 22 μM: pig, simulated intestinal fluid (SIF) with 1% porcine pancreatin, pH 6.5, Table 4-C, > means assay stopped at that time, read-out: SIF (porcine) Min
Outline: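 Peptides (22 μM final) incubated at 37 °C in FASSIF (pH 6.5) with 1% porcine pancreatin; aliquots quenched at various times and analyzed by LC-MS/MS against internal standard. Half-life from first-order exponential decay fit of percent remaining.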

[3] = Simulated Gastric Fluid (SGF) Assay; format: in vitro ADME; settings: pig, simulated gastric fluid (SGF) with porcine pepsin, pH 2; Table 4-C, t1/2
Outline: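 Peptides at 20 μM final in simulated gastric fluid (NaCl, porcine pepsin, HCl; pH 2) at 37° C with shaking. Samples taken at 0, 15, 30 and 60 min, quenched in acetonitrile/0.1% formic acid and quantified by LC-MS/MS against internal standard, relative to time 0. Half-life from first-order exponential decay fit.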

[4] = Dithiothreitol (DTT) Redox Stability Assay; format: physicochemical; settings: Table 4-C, t1/2, 0.5 mM DTT
Outline: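 Peptide at 50 μM final in 100 mM Tris-Cl pH 7.5 was exposed to 0.5 mM DTT at room temperature. Aliquots taken at 20, 40, 80 and 120 min were quenched with acetic acid and analysed by reverse-phase HPLC at 220 nm for remaining oxidized parent. Half-lives were obtained by first-order exponential decay fit.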

Structure (SMILES)	IC50 [1] [nM]	half-life at 22 μM [2] [h]	half-life at 20 μM [3] [h]	DTT Min [4] [min]	SIF (porcine), printed in hr in the cell ([2]; Table 4-C) [h]
CC(=O)N[C@@H]1C(=O)N(C)[C@@H](CCCNC(=N)N)C(=O)N[C@@H](CO)C(=O)N[C@@H](CC(=O)O)C(=O)N[C@@H]([C@@H](C)O)C(=O)N[C@@H](CC(C)C)C(=O)N[C@H](C(=O)N[C@@H](Cc2c[nH]c3ccccc23)C(=O)N[C@@H](CCC(=O)O)C(=O)N(C)[C@@H](CCCCNC(=O)COCC(=O)NCCCC[C@@H](C(N)=O)N(C)C(=O)[C@H](CCC(=O)O)NC(=O)[C@H](Cc2c[nH]c3ccccc23)NC(=O)[C@H]2NC(=O)[C@H](CC(C)C)NC(=O)[C@H]([C@@H](C)O)NC(=O)[C@H](CC(=O)O)NC(=O)[C@H](CO)NC(=O)[C@H](CCCNC(=N)N)N(C)C(=O)[C@@H](NC(C)=O)C(C)(C)SSC2(C)C)C(N)=O)C(C)(C)SSC1(C)C [compound 215, [Ac-Pen-(N-Me-Arg)-Ser-Asp-Thr-Leu-Pen-Trp-Glu-(N-Me-Lys)-NH2]2-DIG] (I: Ac-[Pen][NMeR]SDTL[Pen]WE[NMeK]-NH2 / II: Ac-[Pen][NMeR]SDTL[Pen]WE[NMeK]-NH2; disulfide I:1-I:7, II:1-II:7 (inferred); linker I:10-II:10 via Diglycolyl (inferred))	16.5	> 6	> 6	>120	
CC(=O)N[C@@H]1C(=O)N(C)[C@@H](CCCNC(=N)N)C(=O)N[C@@H](CO)C(=O)N[C@@H](CC(=O)O)C(=O)N[C@@H]([C@@H](C)O)C(=O)N[C@@H](CC(C)C)C(=O)N[C@H](C(=O)N[C@@H](Cc2ccc(C(C)(C)C)cc2)C(=O)N[C@@H](CCC(=O)O)CC(=O)N[C@H](CCCCNC(=O)COCC(=O)NCCCC[C@@H](NC(=O)C[C@H](CCC(=O)O)NC(=O)[C@H](Cc2ccc(C(C)(C)C)cc2)NC(=O)[C@H]2NC(=O)[C@H](CC(C)C)NC(=O)[C@H]([C@@H](C)O)NC(=O)[C@H](CC(=O)O)NC(=O)[C@H](CO)NC(=O)[C@H](CCCNC(=N)N)N(C)C(=O)[C@@H](NC(C)=O)C(C)(C)SSC2(C)C)C(N)=O)C(N)=O)C(C)(C)SSC1(C)C [compound 218, [Ac-Pen-(N-Me-Arg)-Ser-Asp-Thr-Leu-Pen-Phe(4-tBu)-(β-homoGlu)-(D-Lys)-NH2]2-DIG] (I: Ac-[Pen][NMeR]SDTL[Pen][Phe(4-tBu)][β3hE][dK]-NH2 / II: Ac-[Pen][NMeR]SDTL[Pen][Phe(4-tBu)][β3hE][dK]-NH2; disulfide I:1-I:7, II:1-II:7; linker I:10-II:10 via Diglycolyl)	2		> 6	>120	11
CC(=O)N[C@H]1CSSC(C)(C)[C@@H](C(=O)N[C@@H](Cc2c[nH]c3ccccc23)C(=O)N[C@H](CCCCNC(=O)COCC(=O)NCCCC[C@@H](NC(=O)[C@H](Cc2c[nH]c3ccccc23)NC(=O)[C@H]2NC(=O)[C@H](CC(C)C)NC(=O)[C@H]([C@@H](C)O)NC(=O)[C@H](CC(=O)O)NC(=O)[C@H](CO)NC(=O)[C@H](CCCNC(=N)N)N(C)C(=O)[C@@H](NC(C)=O)CSSC2(C)C)C(N)=O)C(N)=O)NC(=O)[C@H](CC(C)C)NC(=O)[C@H]([C@@H](C)O)NC(=O)[C@H](CC(=O)O)NC(=O)[C@H](CO)NC(=O)[C@H](CCCNC(=N)N)N(C)C1=O [compound 204, (Ac-C-N-Me-R-S-D-T-L-Pen-W-k-NH2)2-DIG] (I: Ac-C[NMeR]SDTL[Pen]W[dK]-NH2 / II: Ac-C[NMeR]SDTL[Pen]W[dK]-NH2; disulfide I:1-I:7, II:1-II:7 (inferred); linker I:9-II:9 via Diglycolyl (inferred))	1280	> 6	> 6	27	
CC(=O)N[C@@H]1C(=O)N(C)[C@@H](CCCNC(=N)N)C(=O)N[C@@H](CO)C(=O)N[C@@H](CC(=O)O)C(=O)N[C@@H]([C@@H](C)O)C(=O)N[C@@H](CC(C)C)C(=O)N[C@H](C(=O)N[C@@H](Cc2c[nH]c3ccccc23)C(=O)N[C@@H](CCC(=O)O)C(=O)N(C)[C@H](CCCCNC(=O)COCC(=O)NCCCC[C@H](C(N)=O)N(C)C(=O)[C@H](CCC(=O)O)NC(=O)[C@H](Cc2c[nH]c3ccccc23)NC(=O)[C@H]2NC(=O)[C@H](CC(C)C)NC(=O)[C@H]([C@@H](C)O)NC(=O)[C@H](CC(=O)O)NC(=O)[C@H](CO)NC(=O)[C@H](CCCNC(=N)N)N(C)C(=O)[C@@H](NC(C)=O)C(C)(C)SSC2(C)C)C(N)=O)C(C)(C)SSC1(C)C [compound 214, [Ac-Pen-(N-Me-Arg)-Ser-Asp-Thr-Leu-Pen-Trp-Glu-(N-Me-D-Lys)-NH2]2-DIG] (I: Ac-[Pen][NMeR]SDTL[Pen]WE[dNMeK]-NH2 / II: Ac-[Pen][NMeR]SDTL[Pen]WE[dNMeK]-NH2; disulfide I:1-I:7, II:1-II:7 (inferred); linker I:10-II:10 via Diglycolyl (inferred))	24.5	> 13.5	> 6	>120	
CC(=O)N[C@@H]1C(=O)N(C)[C@@H](CCCNC(=N)N)C(=O)N[C@@H](CO)C(=O)N[C@@H](CC(=O)O)C(=O)N[C@@H]([C@@H](C)O)C(=O)N[C@@H](CC(C)C)C(=O)N[C@H](C(=O)N[C@@H](Cc2c[nH]c3ccccc23)C(=O)N[C@H](CCCCNC(=O)COCC(=O)NCCCC[C@@H](NC(=O)[C@H](Cc2c[nH]c3ccccc23)NC(=O)[C@H]2NC(=O)[C@H](CC(C)C)NC(=O)[C@H]([C@@H](C)O)NC(=O)[C@H](CC(=O)O)NC(=O)[C@H](CO)NC(=O)[C@H](CCCNC(=N)N)N(C)C(=O)[C@@H](NC(C)=O)C(C)(C)SSC2(C)C)C(N)=O)C(N)=O)C(C)(C)SSC1(C)C [compound 209, (Ac-Pen-N-Me-R-S-D-T-L-Pen-W-k-NH2)2-DIG] (I: Ac-[Pen][NMeR]SDTL[Pen]W[dK]-NH2 / II: Ac-[Pen][NMeR]SDTL[Pen]W[dK]-NH2; disulfide I:1-I:7, II:1-II:7 (inferred); linker I:9-II:9 via Diglycolyl (inferred))	260	> 3	> 3	>120	
